Patent publication US12077503B2, “Substituted cyclic amides and their use as herbicides” (FMC CORPORATION, priority 2015, dated 2024)

Key:
Assay type in all cases: in vivo
[1] = tested on: Kochia (Kochia scoparia); test: Test A preemergence; conditions: Bassia scoparia, pre-emergence, 240 h, 0 to 100 scale where 0 is no effect and 100 is complete control, read-out: Kochia plant response rating; for pest or weed control at 31 g/ha: 31 g ai/ha, Preemergence; for pest or weed control at 125 g/ha: 125 g ai/ha, preemergence, visual injury rating, approximately 10 d
Outline: (§1)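 Seeds sprayed preemergence with a directed soil spray, or plants at 2 to 10 cm height and one- to two-leaf stage sprayed postemergence, with test chemicals in a non-phytotoxic solvent mixture containing surfactant, in loam soil–sand blend. Injury rated visually against untreated controls after about 10 d in greenhouse, 0 (no effect) to 100 (complete control).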

[2] = tested on: barnyardgrass (Echinochloa crus-galli); test: Test A preemergence; conditions: Echinochloa crus-galli, pre-emergence, 240 h, 0 to 100 scale where 0 is no effect and 100 is complete control, read-out: Barnyardgrass plant response rating; for pest or weed control at 31 g/ha: 31 g ai/ha, Preemergence; for pest or weed control at 125 g/ha: 125 g ai/ha, preemergence, visual injury rating, approximately 10 d
Outline: as §1

[3] = tested on: giant foxtail (Setaria faberii); test: Test A preemergence; conditions: Setaria faberi, pre-emergence, 240 h, 0 to 100 scale where 0 is no effect and 100 is complete control, read-out: Foxtail, Giant plant response rating; for pest or weed control at 31 g/ha: 31 g ai/ha, Preemergence; for pest or weed control at 125 g/ha: 125 g ai/ha, preemergence, visual injury rating, approximately 10 d
Outline: as §1

[4] = tested on: pigweed (Amaranthus retroflexus); test: Test A preemergence; conditions: Amaranthus retroflexus, pre-emergence, 240 h, 0 to 100 scale where 0 is no effect and 100 is complete control, read-out: Pigweed plant response rating; for pest or weed control at 31 g/ha: 31 g ai/ha, Preemergence; for pest or weed control at 125 g/ha: 125 g ai/ha, preemergence, visual injury rating, approximately 10 d
[5] = tested on: ragweed (common ragweed, Ambrosia elatior); test: Test A preemergence; conditions: Ambrosia artemisiifolia, pre-emergence, 240 h, 0 to 100 scale where 0 is no effect and 100 is complete control, read-out: Ragweed plant response rating; for pest or weed control at 31 g/ha: 31 g ai/ha, Preemergence; for pest or weed control at 125 g/ha: 125 g ai/ha, preemergence, visual injury rating, approximately 10 d
Outline: as §1

[6] = tested on: ryegrass, Italian (Italian ryegrass, Lolium multiflorum); test: Test A preemergence; conditions: Lolium multiflorum, pre-emergence, 240 h, 0 to 100 scale where 0 is no effect and 100 is complete control, read-out: Ryegrass, Italian plant response rating; for pest or weed control at 31 g/ha: 31 g ai/ha, Preemergence; for pest or weed control at 125 g/ha: 125 g ai/ha, preemergence, visual injury rating, approximately 10 d
Outline: as §1

[7] = tested on: Galium (catchweed bedstraw, Galium aparine); test: Test A postemergence; conditions: Galium, post-emergence, 240 h, Postemergence, read-out: Galium plant response rating (0 to 100 scale); for pest or weed control at 125 g/ha: 125 g ai/ha, visual rating about 10 d after treatment; for pest or weed control at 31 g/ha: 31 g ai/ha, 0 is no effect, 100 is complete control
Outline: as §1

[8] = tested on: Kochia (Kochia scoparia); test: Test A postemergence; conditions: Bassia scoparia, post-emergence, 240 h, Postemergence, read-out: Kochia plant response rating (0 to 100 scale); for pest or weed control at 125 g/ha: 125 g ai/ha, visual rating about 10 d after treatment; for pest or weed control at 31 g/ha: 31 g ai/ha, 0 is no effect, 100 is complete control
Outline: as §1

[9] = tested on: barnyardgrass (Echinochloa crus-galli); test: Test A postemergence; conditions: Echinochloa crus-galli, post-emergence, 240 h, Postemergence; for pest or weed control at 125 g/ha: 125 g ai/ha, visual rating about 10 d after treatment, read-out: Barnyardgrass plant response rating (0 to 100 scale, 0 no effect, 100 complete control); for pest or weed control at 31 g/ha: 31 g ai/ha, 0 is no effect, 100 is complete control, read-out: Barnyardgrass plant response rating (0 to 100 scale)
Outline: as §1

[10] = tested on: blackgrass (Alopecurus myosuroides); test: Test A postemergence; conditions: Alopecurus myosuroides, post-emergence, 240 h, Postemergence, read-out: Blackgrass plant response rating (0 to 100 scale); for pest or weed control at 125 g/ha: 125 g ai/ha, visual rating about 10 d after treatment; for pest or weed control at 31 g/ha: 31 g ai/ha, 0 is no effect, 100 is complete control
Outline: as §1

[11] = tested on: corn (Zea mays); test: Test A postemergence; conditions: Zea mays, post-emergence, 240 h, Postemergence, read-out: Corn plant response rating (0 to 100 scale); for plant injury at 125 g/ha: 125 g ai/ha, visual rating about 10 d after treatment; for plant injury at 31 g/ha: 31 g ai/ha, 0 is no effect, 100 is complete control
Outline: as §1

[12] = tested on: giant foxtail (Setaria faberii); test: Test A postemergence; conditions: Setaria faberi, post-emergence, 240 h, Postemergence, read-out: Foxtail, Giant plant response rating (0 to 100 scale); for pest or weed control at 125 g/ha: 125 g ai/ha, visual rating about 10 d after treatment; for pest or weed control at 31 g/ha: 31 g ai/ha, 0 is no effect, 100 is complete control
Outline: as §1

[13] = tested on: pigweed (Amaranthus retroflexus); test: Test A postemergence; conditions: Amaranthus retroflexus, post-emergence, 240 h, Postemergence, read-out: Pigweed plant response rating (0 to 100 scale); for pest or weed control at 125 g/ha: 125 g ai/ha, visual rating about 10 d after treatment; for pest or weed control at 31 g/ha: 31 g ai/ha, 0 is no effect, 100 is complete control
Outline: as §1

[14] = tested on: ragweed (common ragweed, Ambrosia elatior); test: Test A postemergence; conditions: Ambrosia artemisiifolia, post-emergence, 240 h, Postemergence, read-out: Ragweed plant response rating (0 to 100 scale); for pest or weed control at 125 g/ha: 125 g ai/ha, visual rating about 10 d after treatment; for pest or weed control at 31 g/ha: 31 g ai/ha, 0 is no effect, 100 is complete control
Outline: as §1

[15] = tested on: ryegrass, Italian (Italian ryegrass, Lolium multiflorum); test: Test A postemergence; conditions: Lolium multiflorum, post-emergence, 240 h, Postemergence, read-out: Ryegrass, Italian plant response rating (0 to 100 scale); for pest or weed control at 125 g/ha: 125 g ai/ha, visual rating about 10 d after treatment; for pest or weed control at 31 g/ha: 31 g ai/ha, 0 is no effect, 100 is complete control
Outline: as §1

[16] = tested on: wheat (Triticum aestivum); test: Test A postemergence; conditions: Triticum aestivum, post-emergence, 240 h, Postemergence, read-out: Wheat plant response rating (0 to 100 scale); for plant injury at 125 g/ha: 125 g ai/ha, visual rating about 10 d after treatment; for plant injury at 31 g/ha: 31 g ai/ha, 0 is no effect, 100 is complete control
Outline: as §1

[17] = tested on: barnyardgrass (Echinochloa crus-galli); test: Test B flooded paddy test; conditions: Echinochloa crus-galli, 250 g ai/ha, Flood; 0 to 100 scale where 0 is no effect and 100 is complete control; read-out: Barnyardgrass plant response rating
Outline: (§2)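 Plants at 2-leaf stage flooded to 3 cm above soil, with compounds applied directly to paddy water and that depth maintained. Plants kept in greenhouse 13–15 d. Visual rating versus controls on a 0 (no effect) to 100 (complete control) scale.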

[18] = tested on: ducksalad (Heteranthera limosa); test: Test B flooded paddy test; conditions: Heteranthera limosa, 250 g ai/ha, Flood; 0 to 100 scale where 0 is no effect and 100 is complete control; read-out: Ducksalad plant response rating
Outline: as §2

[19] = tested on: rice (Oryra sativa); test: Test B flooded paddy test; conditions: Oryza sativa, 250 g ai/ha, Flood; 0 to 100 scale where 0 is no effect and 100 is complete control; read-out: Rice plant response rating
Outline: as §2

[20] = tested on: sedge, umbrella (small-flower umbrella sedge, Cyperus difformis); test: Test B flooded paddy test; conditions: Cyperus difformis, 250 g ai/ha, Flood; 0 to 100 scale where 0 is no effect and 100 is complete control; read-out: Sedge, Umbrella plant response rating
Outline: as §2

`CN1C[C@H](c2csc3c2CCCC3)[C@@H](C(=O)Nc2cccc(F)c2F)C1=O` [Compound 1276] gave a pest or weed control at 31 g/ha [1] of 30%, a pest or weed control at 125 g/ha [1] of 60% and a pest or weed control at 31 g/ha [2] of 90%. It also gave a pest or weed control at 125 g/ha [2] of 100%, a pest or weed control at 31 g/ha [3] of 90% and a pest or weed control at 125 g/ha [3] of 100%. For the same compound, the pest or weed control at 31 g/ha [4] was 0%, the pest or weed control at 125 g/ha [4] was 30% and the pest or weed control at 31 g/ha [5] was 20%. It also gave a pest or weed control at 125 g/ha [5] of 80%, a pest or weed control at 31 g/ha [6] of 0% and a pest or weed control at 125 g/ha [6] of 30%. The pest or weed control at 125 g/ha [7] was 0%, the pest or weed control at 31 g/ha [7] was 0% and the pest or weed control at 125 g/ha [8] was 0%. The pest or weed control at 31 g/ha [8] was 0%, the pest or weed control at 125 g/ha [9] was 100% and the pest or weed control at 31 g/ha [9] was 70%. The pest or weed control at 125 g/ha [10] was 0%, the pest or weed control at 31 g/ha [10] was 0% and the plant injury at 125 g/ha [11] was 0%. The plant injury at 31 g/ha [11] was 0%, the pest or weed control at 125 g/ha [12] was 60% and the pest or weed control at 31 g/ha [12] was 30%. It also gave a pest or weed control at 125 g/ha [13] of 0%, a pest or weed control at 31 g/ha [13] of 0% and a pest or weed control at 125 g/ha [14] of 0%. It also gave a pest or weed control at 31 g/ha [14] of 0%, a pest or weed control at 125 g/ha [15] of 0% and a pest or weed control at 31 g/ha [15] of 0%. The plant injury at 125 g/ha [16] was 0%, the plant injury at 31 g/ha [16] was 0% and the pest or weed control at 250 g/ha [17] was 65%. For the same compound, the pest or weed control at 250 g/ha [18] was 90%, the pest or weed control at 250 g/ha [19] was 25% and the pest or weed control at 250 g/ha [20] was 0%.
Compound `O=C1NC[C@H](c2csc3c2CCOC3)[C@H]1C(=O)Nc1cccc(F)c1F` [Compound 1279] has a pest or weed control at 31 g/ha [1] of 0%, a pest or weed control at 125 g/ha [1] of 0% and a pest or weed control at 31 g/ha [2] of 0%. It also gave a pest or weed control at 125 g/ha [2] of 70%, a pest or weed control at 31 g/ha [3] of 0% and a pest or weed control at 125 g/ha [3] of 20%. It also gave a pest or weed control at 31 g/ha [4] of 0%, a pest or weed control at 125 g/ha [4] of 0% and a pest or weed control at 31 g/ha [5] of 0%. For the same compound, the pest or weed control at 125 g/ha [5] was 0%, the pest or weed control at 31 g/ha [6] was 0% and the pest or weed control at 125 g/ha [6] was 0%. For the same compound, the pest or weed control at 125 g/ha [7] was 30%, the pest or weed control at 31 g/ha [7] was 0% and the pest or weed control at 125 g/ha [8] was 0%. For the same compound, the pest or weed control at 31 g/ha [8] was 0%, the pest or weed control at 125 g/ha [9] was 50% and the pest or weed control at 31 g/ha [9] was 0%. It also gave a pest or weed control at 125 g/ha [10] of 20%, a pest or weed control at 31 g/ha [10] of 0% and a plant injury at 125 g/ha [11] of 0%. For the same compound, the plant injury at 31 g/ha [11] was 0%, the pest or weed control at 125 g/ha [12] was 20% and the pest or weed control at 31 g/ha [12] was 0%. For the same compound, the pest or weed control at 125 g/ha [13] was 0%, the pest or weed control at 31 g/ha [13] was 0% and the pest or weed control at 125 g/ha [14] was 0%. For the same compound, the pest or weed control at 31 g/ha [14] was 0%, the pest or weed control at 125 g/ha [15] was 0% and the pest or weed control at 31 g/ha [15] was 0%. It also gave a plant injury at 125 g/ha [16] of 0%, a plant injury at 31 g/ha [16] of 0% and a pest or weed control at 250 g/ha [17] of 40%. The pest or weed control at 250 g/ha [18] was 100%, the pest or weed control at 250 g/ha [19] was 30% and the pest or weed control at 250 g/ha [20] was 0%.
